target: T1, human acetyl-CoA carboxylase 2 (ACC2) (Homo sapiens, UniProt O00763); test: Acetyl-CoA carboxylase enzyme assay (malonyl-CoA formation by LC/MS/MS); format: biochemical; settings: recombinant human ACC2 (aa 144-2458); read-out: IC50 ACC2
T1 construct: The cDNA encoding amino acids 144 to 2458 of human acetyl-CoA carboxylase 2; made in house; host or cells: Sf9 insect cells (baculovirus, pFastBac1)
Procedure, shortened: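 Malonyl-CoA formation was read by LC/MS/MS MRM against a [13C3]-malonyl-CoA internal standard, after acetic acid quench. The enzyme was baculovirus/Sf9-expressed human ACC2 residues 144–2458, given 15 minutes room-temperature compound preincubation in HEPES pH 7.5 buffer with MgCl2, citrate and DTT. Substrate solution held 50 μM acetyl-CoA, 120 μM ATP and 2 mM KHCO3.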

T1 sequence (O00763 144-2458): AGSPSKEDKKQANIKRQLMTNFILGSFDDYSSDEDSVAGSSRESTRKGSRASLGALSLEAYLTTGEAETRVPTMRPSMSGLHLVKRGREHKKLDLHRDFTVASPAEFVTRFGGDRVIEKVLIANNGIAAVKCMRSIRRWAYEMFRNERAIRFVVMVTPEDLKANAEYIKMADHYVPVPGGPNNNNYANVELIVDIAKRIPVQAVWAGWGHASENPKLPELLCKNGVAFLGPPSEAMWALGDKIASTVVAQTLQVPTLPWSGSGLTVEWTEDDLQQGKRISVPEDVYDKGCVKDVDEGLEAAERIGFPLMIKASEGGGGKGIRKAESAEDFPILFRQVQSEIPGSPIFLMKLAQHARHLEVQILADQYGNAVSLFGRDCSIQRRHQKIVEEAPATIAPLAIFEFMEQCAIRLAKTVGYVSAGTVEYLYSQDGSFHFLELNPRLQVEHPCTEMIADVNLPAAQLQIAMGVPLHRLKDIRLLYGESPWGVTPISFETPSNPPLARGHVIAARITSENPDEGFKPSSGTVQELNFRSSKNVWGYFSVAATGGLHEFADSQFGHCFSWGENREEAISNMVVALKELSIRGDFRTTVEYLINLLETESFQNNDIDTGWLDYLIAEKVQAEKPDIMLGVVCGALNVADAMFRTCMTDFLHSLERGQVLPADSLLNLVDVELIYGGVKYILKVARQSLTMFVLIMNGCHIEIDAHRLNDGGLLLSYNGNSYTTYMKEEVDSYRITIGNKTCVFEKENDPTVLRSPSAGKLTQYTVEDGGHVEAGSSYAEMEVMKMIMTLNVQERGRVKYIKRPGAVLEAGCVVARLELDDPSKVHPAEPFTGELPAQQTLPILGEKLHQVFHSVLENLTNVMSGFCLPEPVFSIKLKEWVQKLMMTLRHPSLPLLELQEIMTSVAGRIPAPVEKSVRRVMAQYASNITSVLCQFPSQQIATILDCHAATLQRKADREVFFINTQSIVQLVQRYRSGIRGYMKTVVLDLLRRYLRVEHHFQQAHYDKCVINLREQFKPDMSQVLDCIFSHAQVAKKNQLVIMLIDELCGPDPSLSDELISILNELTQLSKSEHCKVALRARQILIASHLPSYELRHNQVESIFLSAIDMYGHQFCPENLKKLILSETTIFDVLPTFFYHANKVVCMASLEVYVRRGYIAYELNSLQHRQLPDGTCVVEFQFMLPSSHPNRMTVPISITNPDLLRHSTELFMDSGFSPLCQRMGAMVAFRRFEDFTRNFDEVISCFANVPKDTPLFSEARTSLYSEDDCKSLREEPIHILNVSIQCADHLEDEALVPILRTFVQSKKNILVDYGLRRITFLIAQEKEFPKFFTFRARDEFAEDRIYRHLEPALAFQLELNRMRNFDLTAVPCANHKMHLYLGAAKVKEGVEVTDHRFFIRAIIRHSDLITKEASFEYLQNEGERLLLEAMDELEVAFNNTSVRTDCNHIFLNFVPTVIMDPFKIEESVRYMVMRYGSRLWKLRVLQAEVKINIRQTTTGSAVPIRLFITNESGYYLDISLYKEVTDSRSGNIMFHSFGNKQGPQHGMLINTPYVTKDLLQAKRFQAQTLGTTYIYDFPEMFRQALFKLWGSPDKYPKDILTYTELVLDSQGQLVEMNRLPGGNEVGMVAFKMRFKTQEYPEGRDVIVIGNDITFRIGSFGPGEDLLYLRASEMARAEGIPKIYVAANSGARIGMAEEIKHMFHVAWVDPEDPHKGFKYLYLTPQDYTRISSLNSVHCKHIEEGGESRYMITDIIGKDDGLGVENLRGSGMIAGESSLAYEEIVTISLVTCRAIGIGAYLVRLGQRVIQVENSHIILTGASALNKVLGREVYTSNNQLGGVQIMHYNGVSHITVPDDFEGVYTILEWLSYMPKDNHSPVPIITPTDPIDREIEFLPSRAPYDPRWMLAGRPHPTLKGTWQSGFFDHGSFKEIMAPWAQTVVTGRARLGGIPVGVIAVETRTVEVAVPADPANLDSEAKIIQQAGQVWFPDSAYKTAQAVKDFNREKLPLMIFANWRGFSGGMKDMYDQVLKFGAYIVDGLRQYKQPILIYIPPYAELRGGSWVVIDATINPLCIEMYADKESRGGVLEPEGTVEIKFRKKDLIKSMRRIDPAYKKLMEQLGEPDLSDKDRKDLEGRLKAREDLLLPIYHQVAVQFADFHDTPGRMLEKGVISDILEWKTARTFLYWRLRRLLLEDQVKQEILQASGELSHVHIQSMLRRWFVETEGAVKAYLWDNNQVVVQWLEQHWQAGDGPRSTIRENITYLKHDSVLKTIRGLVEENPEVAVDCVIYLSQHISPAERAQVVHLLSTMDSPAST

| IC50 | Structure (SMILES) |
| --- | --- |
| 1420 nM | O=C(C1CCC(NS(=O)(=O)c2ccc3cc(-c4ccccc4C(F)(F)F)[nH]c3c2)CC1)N1CCNC(C(F)(F)F)C1 (stereo not shown) [Example 334, 2-(2-(trifluoromethyl)phenyl)-N-((1r,4r)-4-(3-(trifluoromethyl)piperazine-1-carbonyl)cyclohexyl)-1H-indole-6-sulfonamide] |
| 25 nM | Cc1ccccc1-c1cc2ccc(S(=O)(=O)N[C@H]3CC[C@H](C(=O)N4CCCC4c4ccccc4)CC3)cc2[nH]1 (stereo partly shown) [Example 335, N-((1r,4r)-4-(2-phenylpyrrolidine-1-carbonyl)cyclohexyl)-2-o-tolyl-1H-indole-6-sulfonamide] |
| 35 nM | Cn1c(-c2ccc(CO)cc2)cc2ccc(S(=O)(=O)N[C@H]3CC[C@H](C(=O)N4CCOCC4)CC3)cc21 [Example 336, 2-(4-(hydroxymethyl)phenyl)-1-methyl-N-((1r,4r)-4-(morpholine-4-carbonyl)cyclohexyl)-1H-indole-6-sulfonamide] |
| 20 nM | Cn1c(-c2ccc(CO)cc2)cc2ccc(S(=O)(=O)N[C@H]3CC[C@H](C(=O)N4CCN[C@H](C(F)(F)F)C4)CC3)cc21 [Example 337, 2-(4-(hydroxymethyl)phenyl)-1-methyl-N-((1S,4r)-4-((S)-3-(trifluoromethyl)piperazine-1-carbonyl)cyclohexyl)-1H-indole-6-sulfonamide] |
| 15 nM | Cn1c(-c2ccc(CO)cc2)cc2ccc(S(=O)(=O)N[C@H]3CC[C@H](C(=O)N4CCN[C@@H](C(F)(F)F)C4)CC3)cc21 [Example 338, 2-(4-(hydroxymethyl)phenyl)-1-methyl-N-((1R,4r)-4-((R)-3-(trifluoromethyl)piperazine-1-carbonyl)cyclohexyl)-1H-indole-6-sulfonamide] |
| 30 nM | COCc1ccc(-c2cc3ccc(S(=O)(=O)N[C@H]4CC[C@H](C(=O)N5CCNC(C(F)(F)F)C5)CC4)cc3n2C)cc1 (stereo partly shown) [Example 339, 2-(4-(methoxymethyl)phenyl)-1-methyl-N-((1r,4r)-4-(3-(trifluoromethyl)piperazine-1-carbonyl)cyclohexyl)-1H-indole-6-sulfonamide] |
| 255 nM | CCOC(=O)C1CCCCN1C(=O)[C@H]1CC[C@H](NS(=O)(=O)c2ccc3cc(-c4ccc(COC)cc4)[nH]c3c2)CC1 (stereo partly shown) [Example 340, ethyl 1-((1r,4r)-4-(2-(4-(methoxymethyl)phenyl)-1H-indole-6-sulfonamido)cyclohexanecarbonyl)piperidine-2-carboxylate] |
| 240 nM | CCOC(=O)C1CCCCN1C(=O)[C@H]1CC[C@H](NS(=O)(=O)c2ccc3cc(-c4ccc(COC)cc4)n(C)c3c2)CC1 (stereo partly shown) [Example 341, ethyl 1-((1r,4r)-4-(2-(4-(methoxymethyl)phenyl)-1-methyl-1H-indole-6-sulfonamido)cyclohexanecarbonyl)piperidine-2-carboxylate] |
| 135 nM | Cc1ccccc1-c1cc2ccc(S(=O)(=O)N[C@H]3CC[C@H](C(=O)N4CCN[C@H](C(F)(F)F)C4)CC3)cc2[nH]1 [Example 342, 2-o-tolyl-N-((1S,4r)-4-((S)-3-(trifluoromethyl)piperazine-1-carbonyl)cyclohexyl)-1H-indole-6-sulfonamide] |
| 170 nM | Cc1ccccc1-c1cc2ccc(S(=O)(=O)N[C@H]3CC[C@H](C(=O)N4CCN[C@@H](C(F)(F)F)C4)CC3)cc2[nH]1 [Example 343, 2-o-tolyl-N-((1R,4r)-4-((R)-3-(trifluoromethyl)piperazine-1-carbonyl)cyclohexyl)-1H-indole-6-sulfonamide] |
| 60 nM | Cn1c(-c2ccc(F)cc2)cc2ccc(S(=O)(=O)N[C@H]3CC[C@H](C(=O)N4CCNC(C(F)(F)F)C4)CC3)cc21 (stereo partly shown) [Example 344, 2-(4-fluorophenyl)-1-methyl-N-((1r,4r)-4-(3-(trifluoromethyl)piperazine-1-carbonyl)cyclohexyl)-1H-indole-6-sulfonamide] |
| 255 nM | CCOC(=O)C1CCCN(C(=O)[C@H]2CC[C@H](NS(=O)(=O)c3ccc4cc(-c5ccc(F)cc5)n(C)c4c3)CC2)C1 (stereo partly shown) [Example 345, ethyl 1-((1r,4r)-4-(2-(4-fluorophenyl)-1-methyl-1H-indole-6-sulfonamido)cyclohexanecarbonyl)piperidine-3-carboxylate] |
| 265 nM | Cn1c(-c2ccc(F)cc2)cc2ccc(S(=O)(=O)N[C@H]3CC[C@H](C(=O)N4CCCC(C(=O)O)C4)CC3)cc21 (stereo partly shown) [Example 346, 1-((1r,4r)-4-(2-(4-fluorophenyl)-1-methyl-1H-indole-6-sulfonamido)cyclohexanecarbonyl)piperidine-3-carboxylic acid] |
| 120 nM | Cn1c(-c2ccc(CO)cc2)cc2ccc(S(=O)(=O)N[C@H]3CC[C@H](C(=O)N4CCNC(=O)C4)CC3)cc21 [Example 347, 2-(4-(hydroxymethyl)phenyl)-1-methyl-N-((1r,4r)-4-(3-oxopiperazine-1-carbonyl)cyclohexyl)-1H-indole-6-sulfonamide] |
| 45 nM | O=C([C@H]1CC[C@H](NS(=O)(=O)c2ccc3cc(-c4ccc(F)cc4)[nH]c3c2)CC1)N1CCNC(C(F)(F)F)C1 (stereo partly shown) [Example 348, 2-(4-fluorophenyl)-N-((1r,4r)-4-(3-(trifluoromethyl)piperazine-1-carbonyl)cydohexyl)-1H-indole-6-sulfonamide] |
| 100 nM | CCN(C)C(=O)[C@H]1CC[C@H](NS(=O)(=O)c2ccc3cc(-c4ccc(CO)cc4)n(C)c3c2)CC1 [Example 349, (1r,4r)-N-ethyl-4-(2-(4-(hydroxymethyl)phenyl)-1-methyl-1H-indole-6-sulfonamido)-N-methylcyclohexanecarboxamide] |
| 470 nM | CC(C)n1c(-c2ccc(F)cc2)c(Cl)c2ccc(S(=O)(=O)N[C@H]3CC[C@H](C(=O)N4CCNC(C(F)(F)F)C4)CC3)cc21 (stereo partly shown) [Example 350, 3-chloro-2-(4-fluorophenyl)-1-isopropyl-N-((1r,4r)-4-(3-(trifluoromethyl)piperazine-1-carbonyl)cyclohexyl)-1H-indole-6-sulfonamide] |
| 95 nM | COC(=O)[C@@H](NC(=O)[C@H]1CC[C@H](NS(=O)(=O)c2ccc3cc(-c4ccccc4)n(C)c3c2)CC1)c1ccccc1 [Example 351, (S)-methyl 2-((1r,4S)-4-(1-methyl-2-phenyl-1H-indole-6-sulfonamido)cyclohexanecarboxamido)-2-phenylacetate] |
| < 10 nM | Cn1c(-c2ccccc2)cc2ccc(S(=O)(=O)N[C@H]3CC[C@H](C(=O)N[C@@H](c4ccccc4)C(C)(C)O)CC3)cc21 [Example 352, (1r,4S)-N-((S)-2-hydroxy-2-methyl-1-phenylpropy1)-4-(1-methyl-2-phenyl-1H-indole-6-sulfonamido)cyclohexanecarboxamide] |
| < 10 nM | Cn1c(-c2ccccc2)cc2ccc(S(=O)(=O)N[C@H]3CC[C@H](C(=O)N[C@H](CO)c4ccccc4)CC3)cc21 [Example 353, (1r,4S)-N-((S)-2-hydroxy-1-phenylethyl)-4-(1-methyl-2-phenyl-1H-indole-6-sulfonamido)cyclohexanecarboxamide] |
| < 10 nM | Cn1c(-c2ccccc2)cc2ccc(S(=O)(=O)N[C@H]3CC[C@H](C(=O)N4CC(=O)NC[C@@H]4c4ccccc4)CC3)cc21 [Example 354, 1-methyl-N-((1S,4r)-4-((S)-5-oxo-2-phenylpiperazine-1-carbonyl)cyclohexyl)-2-phenyl-1H-indole-6-sulfonamide] |
| < 10 nM | Cn1c(C2CC2)cc2ccc(S(=O)(=O)N[C@H]3CC[C@H](C(=O)N[C@@H](c4ccccc4)C(C)(C)O)CC3)cc21 [Example 355, (1r,4S)-4-(2-cyclopropyl-1-methyl-1H-indole-6-sulfonamido)-N-((S)-2-hydroxy-2-methyl-1-phenylpropyl)cyclohexanecarboxamide] |
| 560 nM | Cn1c(C2CC2)cc2ccc(S(=O)(=O)N[C@H]3CC[C@H](C(=O)N4CCNC(C(F)(F)F)C4)CC3)cc21 (stereo partly shown) [Example 356, 2-cyclopropyl-1-methyl-N-((1r,4r)-4-(3-(trifluoromethyl)piperazine-1-carbonyl)cyclohexyl)-1H-indole-6-sulfonamide] |
| 120 nM | COC(=O)CCc1ccc(-c2cc3ccc(S(=O)(=O)N[C@H]4CC[C@H](C(=O)N5CCCCC5)CC4)cc3n2C)cc1 [Example 357, methyl 3-(4-(1-methyl-6-(N-((1r,4r)-4-(piperidine-1-carbonyl)cyclohexyl)sulfamoyl)-1H-indol-2-yl)phenyl)propanoate] |
| 35 nM | O=C(O)CCc1ccc(-c2cc3ccc(S(=O)(=O)N[C@H]4CC[C@H](C(=O)N5CCCCC5)CC4)cc3[nH]2)cc1 [Example 358, 3-(4-(6-(N-((1r,4r)-4-(piperidine-1-carbonyl)cyclohexyl)sulfamoyl)-1H-indol-2-yl)phenyl)propanoic acid] |
| 95 nM | Cn1c(-c2ccc(CCC(=O)O)cc2)cc2ccc(S(=O)(=O)N[C@H]3CC[C@H](C(=O)N4CCCCC4)CC3)cc21 [Example 359, 3-(4-(1-methyl-6-(N-((1r,4r)-4-(piperidine-1-carbonyl)cyclohexyl)sulfamoyl)-1H-indol-2-yl)phenyl)propanoic acid] |
| 35 nM | COC(=O)CCc1ccc(-c2c(Cl)c3ccc(S(=O)(=O)N[C@H]4CC[C@H](C(=O)N5CCCCC5)CC4)cc3n2C)cc1 [Example 360, methyl 3-(4-(3-chloro-1-methyl-6-(N-((1r,4r)-4-(piperidine-1-carbonyl)cyclohexyl)sulfamoyl)-1H-indol-2-yl)phenyl)propanoate] |
| 10 nM | Cn1c(-c2ccc(CCC(=O)O)cc2)c(Cl)c2ccc(S(=O)(=O)N[C@H]3CC[C@H](C(=O)N4CCCCC4)CC3)cc21 [Example 361, 3-(4-(3-chloro-1-methyl-6-(N-((1r,4r)-4-(piperidine-1-carbonyl)cyclohexyl)sulfamoyl)-1H-indol-2-yl)phenyl)propanoic acid] |
